# US9289509B2, “Uses of immunoconjugates targeting CD138” (Biotest AG, priority 2009, dated 2016)
# Assays:
# [1] = cited from earlier work
# [2] = system: MOLP-8 human multiple myeloma xenografts; assay: MOLP-8 xenograft in CB.17 SCID mice, single bolus iv (Xenograft Mouse Experiments A, Part I); assay type: in vivo; conditions: nBT062 […], all others 250 μg/kg (maytansinoid)
# Experimental: The conjugates were evaluated in a CD138-positive xenograft model (MOLP-8) of human multiple myeloma in severe combined immunodeficient (SCID) mice.
# In these mice, subcutaneous tumors were established (female CB.17 SCID mice) by inoculation with MOLP-8 cell suspensions. Treatment with a single bolus intravenous injection was conducted when tumor volumes reached an average 113 mm^3. Changes in tumor volume and body weight were monitored twice per week.
# Each mouse was inoculated with 1×10^7 MOLP-8 cells subcutaneously into the area under the right shoulder. The total volume was 0.2 ml per mouse, in which the ratio of serum-free medium to matrigel (BD Bioscience, Bedford, Mass.) was 1/1 (v/v). Prior to treatment, the xenograft tumors were monitored daily and were allowed to become established.
# Eleven days after tumor cell inoculation, 42 mice were selected based on tumor volumes and body weights. […] The forty-two mice were randomly divided into seven groups (A-G) of six animals each based on tumor volume.
# Each of six mice in Group A received 200 μl of PBS as vehicle control.
# All agents were intravenously administered as a single bolus injection through a lateral tail vein with a 1 ml syringe fitted with a 27 gauge, ½ inch needle.
# [3] = system: RPMI 8226; assay: Combination with BT062 in cell lines (Chou and Talalay median effect analysis); assay type: cell-based; conditions: RPMI 8226 cells
# Experimental: Combination studies in xenograph mouse models were preceded by studies in cell lines. […] Here, IC50 values for the cytotoxic effects for each drug and each cell line are calculated, and then IC50 ratios for each drug pair. The cells were then exposed to dilution series of either these drug mixtures, or the drugs alone. Experimental data were analyzed using the CompuSyn software (ComboSyn, Inc., Paramus, N.J.). Combination Indexes (CI) for each independent experiment were calculated and reported separately. In the analysis, CI less than 1, equal to 1 and more than 1 indicates synergy, additivity and antagonism, respectively. According to the classification of T. C.
# [4] = system: MOLP8; assay: as above; assay type: cell-based, human; conditions: MOLP8 cells
# [5] = system: MOLP8 multiple myeloma cells; assay: MOLP8 xenograft: BT062 and VELCADE combination therapy; assay type: in vivo, mouse; conditions: for Fractional tumor volume (FTV): Velcade alone, dosed days 1, 4, 8 and 11
# [6] = system: MOLP-8 tumor xenografts; conditions: 450 μg/kg dose; mean time to reach 160 mm^3 minus control
# [7] = system: CD56-positive multiple myeloma; conditions: 1 patient each at 60, 90 and 112 mg/m^2/week; heavily pretreated; cited from earlier work
# [8] = Velcade 1 mg/kg days 1, 4, 8, 11
molecule,measurement,setting,value
"COc1cc2cc(c1Cl)N(C)C(=O)C[C@H](OC(=O)[C@H](C)N(C)C(=O)CCS)[C@]1(C)O[C@H]1[C@H](C)[C@@H]1C[C@@](O)(NC(=O)O1)[C@H](OC)/C=C/C=C(\C)C2 [DM1, N^2-deacetyl-N^2-(3-mercapto-1-oxopropyl)-maytansine]",cytotoxicity relative to maytansine,[1]; more cytotoxic than maytansine,3- to 10 fold
"COc1cc2cc(c1Cl)N(C)C(=O)C[C@H](OC(=O)[C@H](C)N(C)C(=O)CCC(C)(C)S)[C@]1(C)O[C@H]1[C@H](C)[C@@H]1C[C@@](O)(NC(=O)O1)[C@H](OC)/C=C/C=C(\C)C2 [DM4, N^2′-deacetyl-N^2′-(4-methyl-4-mercapto-1-oxopentyl)-maytansine, reference compound]",effect on tumor growth,[2],did not cause any significant inhibition of tumor growth
Nc1cccc2c1CN(C1CCC(=O)NC1=O)C2=O (centres unmarked) [Lenalidomide],"estimate of synergy, drug combined with BT062",[3],Synergistic
"O=C1CCC(N2C(=O)c3ccccc3C2=O)C(=O)N1 (stereo not drawn) [Thalidomide, α-(N-phthalimido) glutarimide]","estimate of synergy, drug combined with BT062",[4],antagonistic effect
"CC(C)C[C@H](NC(=O)[C@H](Cc1ccccc1)NC(=O)c1cnccn1)B(O)O [Velcade, reference compound]","estimate of synergy, drug combined with BT062",[4]; listed as Bortezomib,Slightly antagonistic
same,"estimate of synergy, drug combined with BT062",[4]; listed as bortezomib,antagonistic effect
same,effect on tumor volume,[5]; VELCADE treatment alone (FIG. 29),no effect on the tumor volume
same,(T-C),[5]; [8],0.5 days
same,Regressions Complete,[5]; [8],0/6
same,Regressions Partial,[5]; [8],0/6
same,Result,[5]; [8],Inactive
same,T/C (%),[5]; [8],100%
same,Tumor free survivors day 67,[5]; [8],0/6
same,log cell kill,[5]; [8],0.0
same,Fractional tumor volume (FTV),[5]; day 14,0.84
same,Fractional tumor volume (FTV),[5]; day 18,0.96
same,Fractional tumor volume (FTV),[5]; day 21,0.80
same,Fractional tumor volume (FTV),[5]; day 25,0.95
same,combination effect with BT062 in xenograft model,"[5]; day 25, all BT062 dose regimens",synergistic
COc1cc2cc(c1Cl)N(C)C(=O)C[C@H](OC(=O)[C@H](C)N(C)C(C)=O)[C@]1(C)O[C@H]1[C@H](C)[C@@H]1C[C@@](O)(NC(=O)O1)[C@H](OC)/C=C/C=C(\C)C2 [maytansine],cytotoxicity relative to Vinca alkaloids or taxol,[1]; higher than anti-cancer drugs in clinical use that affect tubulin polymerization,200-1000 fold
B-B4-SPP-DM1 [reference compound],effect on tumor growth,[2],marked delay in tumor growth
nBT062-DM1,TGD (tumor growth delay),[6],18 days
"IMGN901 (conjugate, chains of the INN, looked up, mertansine (DM1) conjugate) VH: QVQLVESGGGVVQPGRSLRLSCAASGFTFSSFGMHWVRQAPGKGLEWVAYISSGSFTIYYADSVKGRFTISRDNSKNTLYLQMNSLRAEDTAVYYCARMRKGYAMDYWGQGTLVTVSS VL: DVVMTQSPLSLPVTLGQPASISCRSSQIIIHSDGNTYLEWFQQRPGQSPRRLIYKVSNRFSGVPDRFSGSGSGTDFTLKISRVEAEDVGVYYCFQGSHVPHTFGQGTKVEIK",patients with confirmed minor response (MR),[7],3 patients
